Assay results from article PMC4167698, “Fatty Acid Esters of Phloridzin Induce Apoptosis of Human Liver Cancer Cells through Altered Gene Expression” (PLoS ONE, 2014).

Columns and labels:
HepG2 cells [1] = experiment: Mitochondrial membrane potential (JC-1); type: cell-based, human; conditions: HepG2, 100 µM, 24 h
Experimental: HepG2 cells were seeded in a black walled clear bottom 96-well sterile flat bottom tissue culture plates (BD Biosciences, USA) at a density of 5×10^4 cells/well (100 µL) and incubated in a CO2 incubator for 24 h at 37°C. […] The staining solution JC-1 was prepared with PBS and 5 µM was added to each well. The cells were further incubated in a CO2 incubator at 37°C for 1 h. After washing the plate with PBS twice, the fluorescence was measured using a Fluostar Optima microplate reader (BMG Labtech) at 535 nm for JC-1 monomers and at 590 nm for JC-1 aggregates.

HepG2 cells [2] = experiment: LDH release cytotoxicity assay; type: cell-based, human; conditions: HepG2, 100 µM, 6 h, relative to maximum release by 1% Triton X-100
Experimental: Lactate dehydrogenase (LDH) is a stable cytosolic enzyme that is released upon membrane damage in apoptotic/necrotic cells. LDH activity was measured using CytoTox 96 Non-Radioactive Cytotoxicity Assay (Promega, Madison, WI, USA), in which LDH released in culture supernatants is measured with a coupled enzymatic assay, resulting in conversion of a tetrazolium salt into a red formazan product. […] After centrifugation, the supernatant was removed to an assay plate, and the LDH released from the cells into culture medium was measured. The maximal release was obtained after treating control cells with 1% Triton X-100 for 30 min at room temperature. The apoptotic/necrotic percentage was expressed using the formula: (sample value/maximal release)×100%.

human DNA topo IIα = target: T1, human DNA topo IIα (Homo sapiens, UniProt P11388); experiment: Topoisomerase IIα catalytic activity (pHOT1 DNA relaxation); type: biochemical; conditions: 100 µM, 4 units enzyme, 37°C 30 min
T1 construct: purchased TopoGEN, Inc., Columbus, OH, USA
Experimental: The topo IIα catalytic activity was monitored via electrophoresis using topoisomerase II drug screening kit (TopoGEN, Inc., Columbus, OH, USA). Briefly, 20 µL of reaction mixtures contained 0.5 M Tris-HCl, pH 8.0, 1.5 M NaCl, 100 mM MgCl2, 20 mM ATP, 300 µg BSA/mL and 5 mM dithiothreitol. Supercoiled DNA (pHOT1 DNA), supercoiled provided in the kit was determined to be ideal for this assay because it is small and easy to handle and has a large number of topo IIα recognition elements. […] The reaction was terminated by adding 2 µL of 10% sodium dodecyl sulfate (SDS) followed by digestion with 2 µL of proteinase K (50 µg/mL) at 37°C for 15 min to degrade enzyme. After adding 2 µL of loading buffer (0.25% bromophenol blue and 50% glycerol) was added to the mixture, samples were loaded onto 1% agarose gel. Electrophoresis was conducted at 66 V (2 V/cm) for 5 h in TBE buffer using Biorad Electrophoretic Gel System (Bio-Rad, Hercules, CA, USA). Supercoiled DNA (pHOT1 DNA) and relaxed DNA were included in the electrophoresis run as markers for DNA topology. Gels were then stained in 0.5 µg/mL gel red in TBE for 30 min and destained for 15 min in distilled water prior to digital image acquisition using Gel Doc 100 system (Bio-Rad, Hercules, CA, USA).
One unit of topoisomerase II activity was defined as the minimum amount of enzyme required to achieve complete relaxation of […] superhelical pHOT1 DNA in 30 min at 37°C. […] The percent of inhibition was calculated by the following formula: [drawing 1] Where Scontrol is the percent of supercoiled DNA in the control lane (without enzyme and test compounds), S0 is the percent of supercoiled DNA in the lane without test compounds and S is the percent of supercoiled DNA in the lane with test compounds and enzyme.

[3] = test system: LNCaP prostate cancer cells; set-up: method as in PMID 20714300; conditions: 100 µM; cited from earlier work
DNA topo IIα = test system: DNA topo IIα; set-up: method as in PMID 7769390; conditions: cited from earlier work
HepG2 cells [4] = experiment: Morphologic observation under inverted phase contrast microscope; type: cell-based, human; conditions: HepG2, 100 µM, 24 h
Experimental: After 24 h of treatment, the morphology of HepG2 cells was observed under an inverted phase contrast microscope (Nikon Eclipse E 100, Nikon, Mississauga, ON, Canada) and were captured at 400X magnification using Infinity digital microscopy camera (Lumenera corporation, Ottawa, ON, Canada).

B16 mouse melanoma cells = test system: B16 mouse melanoma cells; set-up: method as in PMID 17827407; conditions: antitumor activity study of apple polyphenols; cited from earlier work
[5] = glycosylation at 2-OH; cited from earlier work
[6] = test system: BALB-MC.E12 mouse mammary tumor cells; set-up: method as in PMID 17827407; conditions: antitumor activity study of apple polyphenols; cited from earlier work
[7] = test system: normal human hepatocytes (HP-F); experiment: MTS cell viability assay, normal human hepatocytes; type: cell-based; conditions: Hepatocyte, 24 h
Experimental: Cell viability was determined by using the MTS assay. In brief, HepG2 cells (5×10^3 cells/100 µL/well), MDA-MB-231 (5×10^3 cells/100 µL/well), THP-1 (25×10^3/100 µL/well), normal human and rat hepatocytes (1×10^4 cells/100 µL/well) were plated in triplicate, in a 96 well sterile flat bottom tissue culture plates. […] Thereby, cells were exposed to various concentrations (0.1, 1, 10, 25, 50, 75, 100 µM) of each treatment. Controls consist of cells with media containing DMSO (<0.5%), test blank wells contained the test compound in media with no cells and blank wells contained media with no cells. After additional 3, 6, 12, 18 or 24 h, 20 µL of the MTS reagent in combination with the electron coupling agent, phenazine methosulfate were added to the wells and cells were incubated in a humidified incubator for 3 h. Absorbance at 490 nm (OD490) was measured by using a Flurostar Optima microplate reader (BMG Labtech, Cary, NC, USA) to obtain the number of viable cells relative to the control population. Percentage of viability of the test compound treated cells are expressed as percentage compared to control (<0.5% DMSO). […] The selective index (SI) of the fatty acid esters of phloridzin is defined as the ratio of cytotoxicity (EC50 values) on normal HP-F cells to solid cancer HepG2, MDA-MB-231 cells (SI = EC50 on HP-F cells/EC50 on solid cancer cells). Samples with SI values greater than three were considered to have high selectivity towards cancer cells.

T1 sequence (P11388 whole entry): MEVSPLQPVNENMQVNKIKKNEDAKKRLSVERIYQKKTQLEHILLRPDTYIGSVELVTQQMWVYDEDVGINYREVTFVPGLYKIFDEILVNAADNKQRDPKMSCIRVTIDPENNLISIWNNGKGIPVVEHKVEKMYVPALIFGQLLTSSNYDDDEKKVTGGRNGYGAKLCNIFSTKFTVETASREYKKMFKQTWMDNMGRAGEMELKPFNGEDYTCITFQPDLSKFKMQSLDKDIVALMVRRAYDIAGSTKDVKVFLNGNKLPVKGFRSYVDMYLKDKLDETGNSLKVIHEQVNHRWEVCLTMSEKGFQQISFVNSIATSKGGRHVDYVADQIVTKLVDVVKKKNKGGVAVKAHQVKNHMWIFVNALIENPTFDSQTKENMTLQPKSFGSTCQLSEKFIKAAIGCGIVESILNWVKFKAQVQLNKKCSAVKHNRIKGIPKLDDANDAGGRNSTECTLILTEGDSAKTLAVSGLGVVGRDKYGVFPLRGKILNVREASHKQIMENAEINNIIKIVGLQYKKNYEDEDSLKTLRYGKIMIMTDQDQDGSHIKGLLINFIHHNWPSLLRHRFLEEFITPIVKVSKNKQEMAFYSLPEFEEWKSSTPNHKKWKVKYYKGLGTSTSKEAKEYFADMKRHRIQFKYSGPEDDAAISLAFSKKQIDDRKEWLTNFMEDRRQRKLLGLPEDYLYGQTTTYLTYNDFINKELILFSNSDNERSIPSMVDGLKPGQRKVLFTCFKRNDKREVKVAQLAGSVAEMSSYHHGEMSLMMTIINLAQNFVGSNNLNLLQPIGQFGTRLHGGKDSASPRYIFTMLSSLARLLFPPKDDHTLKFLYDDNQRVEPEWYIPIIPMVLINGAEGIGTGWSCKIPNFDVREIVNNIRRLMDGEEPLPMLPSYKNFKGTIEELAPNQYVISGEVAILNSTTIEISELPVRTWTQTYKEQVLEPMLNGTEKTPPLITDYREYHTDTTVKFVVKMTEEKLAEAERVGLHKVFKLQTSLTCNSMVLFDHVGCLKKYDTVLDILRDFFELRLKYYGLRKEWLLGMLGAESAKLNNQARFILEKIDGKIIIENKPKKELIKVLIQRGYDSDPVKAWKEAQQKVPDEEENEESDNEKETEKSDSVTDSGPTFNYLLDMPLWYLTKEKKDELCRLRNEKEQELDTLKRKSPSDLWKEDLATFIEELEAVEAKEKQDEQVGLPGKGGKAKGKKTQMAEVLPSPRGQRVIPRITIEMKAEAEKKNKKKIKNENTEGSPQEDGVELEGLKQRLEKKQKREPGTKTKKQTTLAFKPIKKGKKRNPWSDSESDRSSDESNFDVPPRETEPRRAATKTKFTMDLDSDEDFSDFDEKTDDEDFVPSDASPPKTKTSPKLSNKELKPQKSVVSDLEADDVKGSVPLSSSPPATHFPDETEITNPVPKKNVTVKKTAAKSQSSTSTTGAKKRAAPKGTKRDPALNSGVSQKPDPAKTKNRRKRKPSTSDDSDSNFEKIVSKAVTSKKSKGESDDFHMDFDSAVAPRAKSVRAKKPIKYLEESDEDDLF

## O=C(CCc1ccc(O)cc1)c1c(O)cc(O)cc1O [Phloretin]
HepG2 cells [1]
  mitochondrial membrane potential: significant (P<0.05) reduction
HepG2 cells [2]
  LDH release: 7.9±0.5%
Human DNA topo IIα
  catalytic activity of human DNA topo IIα (pHOT DNA relaxation): inhibited catalytic activity
[3]
  TRAIL-induced apoptosis and cytotoxicity: augmented
DNA topo IIα
  DNA topo IIα unknotting activity: inhibit DNA topo IIα unknotting activity

## O=C(CCc1ccc(O)cc1)c1c(O)cc(O)cc1O[C@@H]1O[C@H](CO)[C@@H](O)[C@H](O)[C@H]1O [Phloridzin, phloretin 2′-O-glucoside]
HepG2 cells [4]
  apoptotic morphological changes: no effect
B16 mouse melanoma cells
  proliferation of transplanted B16 mouse melanoma cells: did not affect the proliferation
[5]
  decrease of antioxidant activities in comparison to phloretin: 18 times
Human DNA topo IIα
  catalytic activity of human DNA topo IIα (pHOT DNA relaxation): inhibited catalytic activity
[6]
  proliferation of BALB-MC.E12 mouse mammary tumor cells: did not affect the proliferation
[7]
  EC50: > 100 µM
